Assay results taken from US11053204B2, “Pyrimidinyloxy benzene derivatives as herbicides” (FMC Corporation, priority 2015, dated 2021).

Key:
Format in all cases: in vivo
[1] = test system: Italian ryegrass (Lolium multiflorum); experiment: Test A preemergence, visual injury rating
Method in brief: (§1)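 Visual injury scored 0–100 (100 = complete control) against untreated controls about 10 days after treatment in a greenhouse. Test chemicals, formulated with surfactant in non-phytotoxic solvent, were sprayed on soil preemergence or on 2-10 cm, one- to two-leaf plants postemergence.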

[2] = test system: barnyardgrass (Echinochloa crus-galli); experiment: Test A preemergence, visual injury rating; conditions: for Barnyardgrass plant response rating: 0 to 100 scale (0 no effect, 100 complete control)
Method in brief: as §1

[3] = test system: giant foxtail (Setaria faberii); experiment: Test A preemergence, visual injury rating; conditions: for Foxtail, Giant plant response rating: 0 to 100 scale (0 no effect, 100 complete control)
Method in brief: as §1

[4] = test system: kochia (Kochia scoparia); experiment: Test A preemergence, visual injury rating
Method in brief: as §1

[5] = test system: pigweed (Amaranthus retroflexus); experiment: Test A preemergence, visual injury rating; conditions: for Pigweed plant response rating: 0 to 100 scale (0 no effect, 100 complete control)
Method in brief: as §1

[6] = test system: ragweed (common ragweed, Ambrosia elatior); experiment: Test A preemergence, visual injury rating
Method in brief: as §1

[7] = test system: Italian ryegrass (Lolium multiflorum); experiment: Test A postemergence, visual injury rating; conditions: 0 is no effect, 100 is complete control
Method in brief: as §1

[8] = test system: barnyardgrass (Echinochloa crus-galli); experiment: Test A postemergence, visual injury rating; conditions: 0 is no effect, 100 is complete control
Method in brief: as §1

[9] = test system: blackgrass (Alopecurus myosuroides); experiment: Test A postemergence, visual injury rating; conditions: 0 is no effect, 100 is complete control
Method in brief: as §1

[10] = test system: corn (Zea mays); experiment: Test A postemergence, visual injury rating; conditions: 0 is no effect, 100 is complete control
Method in brief: as §1

[11] = test system: galium (catchweed bedstraw, Galium aparine); experiment: Test A postemergence, visual injury rating; conditions: 0 is no effect, 100 is complete control
Method in brief: as §1

[12] = test system: giant foxtail (Setaria faberii); experiment: Test A postemergence, visual injury rating; conditions: 0 is no effect, 100 is complete control
Method in brief: as §1

[13] = test system: kochia (Kochia scoparia); experiment: Test A postemergence, visual injury rating; conditions: 0 is no effect, 100 is complete control
Method in brief: as §1

[14] = test system: pigweed (Amaranthus retroflexus); experiment: Test A postemergence, visual injury rating; conditions: 0 is no effect, 100 is complete control
Method in brief: as §1

[15] = test system: ragweed (common ragweed, Ambrosia elatior); experiment: Test A postemergence, visual injury rating; conditions: 0 is no effect, 100 is complete control
Method in brief: as §1

[16] = test system: wheat (Triticum aestivum); experiment: Test A postemergence, visual injury rating; conditions: 0 is no effect, 100 is complete control
Method in brief: as §1

[17] = test system: barnyardgrass (Echinochloa crus-galli); experiment: Test B flooded paddy test, plant response rating; conditions: 250 g ai/ha; Flood; scale of 0 to 100 where 0 is no effect and 100 is complete control; 13 to 15 days
Method in brief: (§2)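 Visual injury ratings against untreated controls, taken 13 to 15 days after compound was added to paddy water standing 3 cm above the soil.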

[18] = test system: ducksalad (Heteranthera limosa); experiment: Test B flooded paddy test, plant response rating; conditions: 250 g ai/ha; Flood; scale of 0 to 100 where 0 is no effect and 100 is complete control; 13 to 15 days
Method in brief: as §2

[19] = test system: rice (Oryza sativa); experiment: Test B flooded paddy test, plant response rating; conditions: 250 g ai/ha; Flood; scale of 0 to 100 where 0 is no effect and 100 is complete control; 13 to 15 days
Method in brief: as §2

[20] = test system: sedge, umbrella (small-flower umbrella sedge, Cyperus difformis); experiment: Test B flooded paddy test, plant response rating; conditions: 250 g ai/ha; Flood; scale of 0 to 100 where 0 is no effect and 100 is complete control; 13 to 15 days
Method in brief: as §2

[21] = test system: barnyardgrass (Echinochloa crus-galli); experiment: Test C flooded paddy test, plant response rating; conditions: flood, scale 0 to 100
Description: (§3) At the same time, plants selected from these crop and weed species and also chickweed (common chickweed, Stellaria media), buckwheat, wild (wild buckwheat, Polygonum convolvulus), wild mustard (Sinapis arvensis), field poppy (Papaver rhoeas), field violet (Viola arvensis), geranium, cutleaf (cutleaf geranium, Geranium dissectum), Canada thistle (Cirsium arvense), and speedwell (bird's-eye speedwell, Veronica persica), were planted in pots containing Sunshine Redi-Earth® planting medium comprising spaghnum peat moss, vermiculite, starter nutrients and dolomitic limestone and treated with postemergence applications of test chemicals formulated in the same manner. Plants ranged in height from 2 to 18 cm (1- to 4-leaf stage) for postemergence treatments. Treated plants and controls were maintained in a greenhouse for 13 to 15 d, after which time all species were compared to controls and visually evaluated. Plant response ratings, summarized in Table C, are based on a scale of 0 to 100 where 0 is no effect and 100 is complete control. A dash (-) response means no test result.
(§4) Plant species in the flooded paddy test consisted of rice (Oryza sativa), sedge, umbrella (small-flower umbrella sedge Cyperus difformis), ducksalad (Heteranthera limosa), and barnyardgrass (Echinochloa crus-galli) grown to the 2-leaf stage for testing. At time of treatment, test pots were flooded to 3 cm above the soil surface, treated by application of test compounds directly to the paddy water, and then maintained at that water depth for the duration of the test.

[22] = test system: ducksalad (Heteranthera limosa); experiment: Test C flooded paddy test, plant response rating; conditions: flood, scale 0 to 100
Description: as §3, §4

[23] = test system: rice (Oryza sativa); experiment: Test C flooded paddy test, plant response rating; conditions: flood, scale 0 to 100
Description: as §3, §4

[24] = test system: sedge, umbrella (small-flower umbrella sedge Cyperus difformis); experiment: Test C flooded paddy test, plant response rating; conditions: flood, scale 0 to 100
Description: as §3, §4

[25] = test system: corn (Zea mays); experiment: Test A preemergence, visual injury rating; conditions: 1000 g ai/ha, 0 to 100 scale (0 no effect, 100 complete control)
Method in brief: as §1

[26] = test system: large (Lg) crabgrass (Digitaria sanguinalis); experiment: Test A preemergence, visual injury rating; conditions: 1000 g ai/ha, 0 to 100 scale (0 no effect, 100 complete control)
Method in brief: as §1

[27] = test system: velvetleaf (Abutilon theophrasti); experiment: Test A preemergence, visual injury rating; conditions: 1000 g ai/ha, 0 to 100 scale (0 no effect, 100 complete control)
Method in brief: as §1

[28] = test system: wheat (Triticum aestivum); experiment: Test A preemergence, visual injury rating; conditions: 1000 g ai/ha, 0 to 100 scale (0 no effect, 100 complete control)
Method in brief: as §1

[29] = test system: large (Lg) crabgrass (Digitaria sanguinalis); experiment: Test A postemergence, visual injury rating; conditions: 1000 g ai/ha, 0 is no effect, 100 is complete control
Method in brief: as §1

[30] = test system: velvetleaf (Abutilon theophrasti); experiment: Test A postemergence, visual injury rating; conditions: 1000 g ai/ha, 0 is no effect, 100 is complete control
Method in brief: as §1

[31] = 31 g ai/ha, 0 to 100 scale, 0 no effect, 100 complete control
[32] = 125 g ai/ha, 0 to 100 scale (0 no effect, 100 complete control)
[33] = 31 g ai/ha, 0 to 100 scale, approximately 10 days

SMILES: FC(F)(F)CCOCc1c(Br)cccc1Oc1ncc(Cl)cn1 [Compound 66]
- Plant response rating, Ryegrass, Italian [1, 31]: 0
- Ryegrass, Italian plant response rating [1, 32]: 30
- Plant response rating, Barnyardgrass [2, 31]: 90
- Barnyardgrass plant response rating ([2]; 125 g ai/ha): 100
- Plant response rating, Foxtail, Giant [3, 31]: 70
- Foxtail, Giant plant response rating ([3]; 125 g ai/ha): 100
- Plant response rating, Kochia [4, 31]: 0
- Kochia plant response rating [4, 32]: 40
- Plant response rating, Pigweed [5, 31]: 20
- Pigweed plant response rating ([5]; 125 g ai/ha): 100
- Plant response rating, Ragweed [6, 31]: 0
- Ragweed plant response rating [6, 32]: 100
- Ryegrass, Italian plant response rating [7, 33]: 0
- Ryegrass, Italian plant response rating (0 to 100 scale) ([7]; 125 g ai/ha): 50
- Barnyardgrass plant response rating [8, 33]: 40
- Barnyardgrass plant response rating (0 to 100 scale) ([8]; 125 g ai/ha): 100
- Blackgrass plant response rating [9, 33]: 10
- Blackgrass plant response rating (0 to 100 scale) ([9]; 125 g ai/ha): 100
- Corn plant response rating [10, 33]: 20
- Corn plant response rating (0 to 100 scale) ([10]; 125 g ai/ha): 70
- Galium plant response rating [11, 33]: 30
- Galium plant response rating (0 to 100 scale) ([11]; 125 g ai/ha): 100
- Foxtail, Giant plant response rating [12, 33]: 30
- Foxtail, Giant plant response rating (0 to 100 scale) ([12]; 125 g ai/ha): 100
- Kochia plant response rating [13, 33]: 20
- Kochia plant response rating (0 to 100 scale) ([13]; 125 g ai/ha): 50
- Pigweed plant response rating [14, 33]: 40
- Pigweed plant response rating (0 to 100 scale) ([14]; 125 g ai/ha): 100
- Ragweed plant response rating [15, 33]: 0
- Ragweed plant response rating (0 to 100 scale) ([15]; 125 g ai/ha): 20
- Wheat plant response rating [16, 33]: 0
- Wheat plant response rating (0 to 100 scale) ([16]; 125 g ai/ha): 30
- Plant response rating, Barnyardgrass [17]: 30
- Plant response rating, Ducksalad [18]: 100
- Plant response rating, Rice [19]: 0
- Plant response rating, Sedge, Umbrella [20]: 95
- Barnyardgrass plant response rating ([21]; 31 g ai/ha): 0
- Barnyardgrass plant response rating ([21]; 62 g ai/ha): 0
- Barnyardgrass plant response rating ([21]; 125 g ai/ha): 25
- Barnyardgrass plant response rating ([21]; 250 g ai/ha): 80
- Ducksalad plant response rating ([22]; 31 g ai/ha): 40
- Ducksalad plant response rating ([22]; 62 g ai/ha): 80
- Ducksalad plant response rating ([22]; 125 g ai/ha): 85
- Ducksalad plant response rating ([22]; 250 g ai/ha): 95
- Rice plant response rating ([23]; 31 g ai/ha): 0
- Rice plant response rating ([23]; 62 g ai/ha): 0
- Rice plant response rating ([23]; 125 g ai/ha): 0
- Rice plant response rating ([23]; 250 g ai/ha): 20
- Sedge, Umbrella plant response rating ([24]; 31 g ai/ha): 40
- Sedge, Umbrella plant response rating ([24]; 62 g ai/ha): 75
- Sedge, Umbrella plant response rating ([24]; 125 g ai/ha): 85
- Sedge, Umbrella plant response rating ([24]; 250 g ai/ha): 95

SMILES: CON=C(C)c1ccccc1Oc1ncc(Cl)cn1 [Compound 55]
- Barnyardgrass plant response rating ([2]; 1000 g ai/ha): 0
- Corn plant response rating [25]: 0
- Foxtail, Giant plant response rating ([3]; 1000 g ai/ha): 0
- Crabgrass, Large plant response rating [26]: 0
- Pigweed plant response rating ([5]; 1000 g ai/ha): 0
- Velvetleaf plant response rating [27]: 0
- Wheat plant response rating [28]: 0
- Barnyardgrass plant response rating (0 to 100 scale) ([8]; 1000 g ai/ha): 0
- Corn plant response rating (0 to 100 scale) ([10]; 1000 g ai/ha): 0
- Foxtail, Giant plant response rating (0 to 100 scale) ([12]; 1000 g ai/ha): 10
- Crabgrass, Large plant response rating (0 to 100 scale) [29]: 0
- Pigweed plant response rating (0 to 100 scale) ([14]; 1000 g ai/ha): 0
- Velvetleaf plant response rating (0 to 100 scale) [30]: 10
- Wheat plant response rating (0 to 100 scale) ([16]; 1000 g ai/ha): 0
